Measured values from patent US20140357512A1, “HISTONE DEACETYLASE (HDAC) BIOMARKERS IN MULTIPLE MYELOMA” (priority 2013, published 2014).

Tested on: human myeloma cell line MM.1S
Test: SILAC acetylated-lysine peptide profiling, HDAC inhibitor vs DMSO (light/heavy ratio)
Type: cell-based
Description: An embodiment of the invention comprises utilizing the SILAC method in order to quantitate changes in protein expression between two or more populations of cells. The SILAC method is a technique based on mass spectrometry that detects differences in protein abundance among samples using non-radioactive isotopic labeling. The SILAC method is known in the art, and described in detail in Ong et al., “Stable Isotope Labeling by Amino Acids in Cell Culture, SILAC, as a Simple and Accurate Approach to Expression Proteomics”, Molecular & Cellular Proteomics, vol. 1, pp. 376-386 (2002), which is incorporated herein by reference in its entirety.
Briefly, the SILAC method involves growing two populations of cells in cell culture. The first population of cells is grown in growth media containing normal amino acids (“normal media”). The second population of cells is grown in media lacking a standard essential amino acid (such as lysine), but is then supplemented with a non-radioactive, isotopically labeled form of that essential amino acid (such as lysine labeled with ^13C atoms, rather than normal ^12C atoms), which is called “heavy media”. When the two populations of cells are each growing in the medium, they incorporate the amino acids into all of their proteins. The growth of cells maintained in the heavy media is no different from that in normal media. All peptides containing the heavy amino acids are heavier than their normal counterparts. The cells from each of the two populations of cells are lysed. The lysates from each of the two cell populations are then combined. The combined cell lysates are then analyzed by mass spectrometry. Pairs of chemically identical peptides of different stable isotope composition can be differentiated in a mass spectrometer due to their difference in mass. The ratio of peak intensities in the mass spectrum for such peptide pairs reflects the abundance ratio for the two proteins.
This example describes SILAC studies that were performed to compare the effects of three different HDAC inhibitors (Compound A, Compound B, and tubastatin A) to a control on a human multiple myeloma cell line. The HDAC inhibitors were also compared amongst themselves to determine differences in their effects.
A human myeloma cell line MM.1S was grown using either ^12C (light) or ^13C (heavy) lysine containing culture medium. The “heavy” cells were treated with DMSO as the control, and the “light” cells were treated with a single HDAC inhibitor at 37° C. for 6 hours. The heavy and light cells were lysed, and the lysates were mixed in 1:1 ratio and digested with the protease trypsin. The acetylated lysine containing peptides (due to the action of the HDAC inhibitor) in the digested peptide pool were captured by a non-specific anti-acetylated lysine antibody cocktail (the antibodies identify both light and heavy acetylated peptides), and subjected to mass spectrometry analysis in order to identify thousands of individual peptides.
Thousands of peptides were identified in pairs (^12C and ^13C) due to their known mass differences. The amino acid sequence and quantitative ratio (Light/Heavy) of a given peptide in two differentially treated cell lysates were then determined and annotated with their possible protein (gene) sources.
As stated above, three HDAC inhibitors (Compound A, Compound B, and Tubastatin A) were used. Thus, the SILAC method was performed three times, with a different HDAC inhibitor compared to a control each time. Accordingly, there are three pairs of quantitative data in the table below, i.e., Compound A:DMSO, Compound B:DMSO, and Tubastatin A:DMSO. A cut-off of 1.30 fold of change (increase or decrease) was then used to determine “changed” or “+” in the table, and any peptides with a fold of change less than 1.3 fold were determined to be “unchanged” or “0” in the table. Those peptides that were not identified were marked as “NA” in the table. […]

CN1CCc2c(c3ccccc3n2Cc2ccc(C(=O)NO)cc2)C1 [Tub A]
L/H ratio of acetylated peptide MYFDK(ac)YVLKPATEGK (SEQ ID NO: 23) (ATAD3A [491], log 2 scale, drug vs DMSO): 0.62 | L/H ratio of acetylated peptide IVEYEK(ac)EMEK (SEQ ID NO: 24) (ATP5H [117], log 2 scale, drug vs DMSO): 0.63 | L/H ratio of acetylated peptide YYNK(ac)YINVK (SEQ ID NO: 12) (ATP5J2 [54], log 2 scale, drug vs DMSO): 0.66 | light to heavy ratio (L/H ratio) of acetylated peptide QNK(ac)LEQVEK (SEQ ID NO: 271) (ATP synthase subunit O mitochondrial [54], ATP50, drug:DMSO): 0.45 log 2 | light to heavy ratio (L/H ratio) of acetylated peptide STVAQLVK(ac)R (SEQ ID NO: 552) (ATP synthase subunit alpha mitochondrial [261], gene ATP5A1, inhibitor:DMSO): 0.00 log 2 | light to heavy ratio (L/H ratio) of acetylated peptide ISEQSDAK(ac)LK (SEQ ID NO: 600) (ATP synthase subunit alpha mitochondrial [539], gene ATP5A1, inhibitor:DMSO): 0.00 log 2 | light to heavy ratio (L/H ratio) of acetylated peptide HVVQSISTQQEK(ac)ETIAK (SEQ ID NO: 307) (ATP synthase subunit b mitochondrial [233], ATP5F1, drug:DMSO): 0.62 log 2 | light to heavy ratio (L/H ratio) of acetylated peptide IVNSAQTGSFK(ac)QLTVK (SEQ ID NO: 279) (ATP synthase subunit g mitochondrial [66], ATP5L, drug:DMSO): 0.77 log 2 | light to heavy ratio (L/H ratio) of acetylated peptide ELDPIQK(ac)LFVDK (SEQ ID NO: 365) (ATP synthase-coupling factor 6 mitochondrial [41], ATP5J, drug:DMSO): 0.00 log 2 | light to heavy ratio (L/H ratio) of acetylated peptide FEDPK(ac)FEVIEKPQA (SEQ ID NO: 325) (ATP synthase-coupling factor 6 mitochondrial [99], ATP5J, drug:DMSO): 0.00 log 2 | light to heavy ratio (L/H ratio) of acetylated peptide, log 2 scale (AVEEK(ac)IEWLESHQDADIEDFK (SEQ ID NO: 172), 78 kDa glucose-regulated protein [601], HSPA5): −0.54 | light to heavy ratio (L/H ratio) of acetylated peptide, log 2 scale (AVIWPQYVK(ac)DR (SEQ ID NO: 156), cDNA FLJ59630 highly similar to Growth hormone-inducible transmembrane protein [124], GHITM): 0.47 | light to heavy ratio (L/H ratio) of acetylated peptide, log 2 scale (AVK(ac)HAEELER (SEQ ID NO: 225), Isoform 2 of Signal recognition particle 68 kDa protein [164], SRP68): −1.00 | light to heavy ratio (L/H ratio) of acetylated peptide, log 2 scale (AYGGSMCAK(ac)CVR (SEQ ID NO: 204), 60S ribosomal protein L34 [85], RPL34): 0.40 | L/H ratio of acetylated peptide (AYHLQK(ac)STCGK (SEQ ID NO: 443), 60S ribosomal protein L37 [31], RPL37): 0.00 log 2 | light to heavy ratio (L/H ratio) of acetylated peptide AFAK(ac)ELFLGK (SEQ ID NO: 627) (Acyl-CoA dehydrogenase family member 9 mitochondrial [41], gene ACAD9, inhibitor:DMSO): 0.00 log 2 | light to heavy ratio (L/H ratio) of acetylated peptide YSAK(ac)DYFFK (SEQ ID NO: 319) (Alpha-soluble NSF attachment protein [203], NAPA, drug:DMSO): 0.44 log 2 | light to heavy ratio (L/H ratio) of acetylated peptide PAQGAK(ac)YR (SEQ ID NO: 305) (Annexin A6 [9], ANXA6, drug:DMSO): 0.39 log 2 | light to heavy ratio (L/H ratio) of acetylated peptide TKYEK(ac)SLYSMIK (SEQ ID NO: 270) (Annexin A6 [299], ANXA6, drug:DMSO): 0.42 log 2 | light to heavy ratio (L/H ratio) of acetylated peptide NDTSGEYK(ac)K (SEQ ID NO: 285) (Annexin A6 [314], ANXA6, drug:DMSO): 0.70 log 2 | light to heavy ratio (L/H ratio) of acetylated peptide AINEAYK(ac)EDYHK (SEQ ID NO: 282) (Annexin A6 [478], ANXA6, drug:DMSO): 0.53 log 2 | light to heavy ratio (L/H ratio) of acetylated peptide NKPLFFADK(ac)LYK (SEQ ID NO: 298) (Annexin A6 [607], ANXA6, drug:DMSO): 0.51 log 2 | light to heavy ratio (L/H ratio) of acetylated peptide GAGTDEK(ac)TLTR (SEQ ID NO: 621) (Annexin A6 [620], gene ANXA6, inhibitor:DMSO): 0.00 log 2 | light to heavy ratio (L/H ratio), log 2 scale, acetylated peptide EFIEK(ac)YDK (SEQ ID NO: 779) (Annexin A6 [644], gene ANXA6, drug:DMSO): 0.00 | light to heavy ratio (L/H ratio) of acetylated peptide DDNGK(ac)PYVLPSVR (SEQ ID NO: 579) (Aspartate aminotransferase mitochondrial [73], gene GOT2, inhibitor:DMSO): 0.00 log 2 | light to heavy ratio (L/H ratio) of acetylated peptide ELK(ac)EIQYGIR (SEQ ID NO: 540) (Branched-chain-amino-acid aminotransferase [337], gene BCAT2, inhibitor:DMSO): 0.00 log 2 | light to heavy ratio (L/H ratio), log 2 scale, acetylated peptide ESCSK(ac)HASGTSFHLPQPSFR (SEQ ID NO: 780) (Bromodomain and PHD finger-containing protein 3 [105], gene BRPF3, drug:DMSO): 0.00 | L/H ratio of acetylated peptide FYGDEEK(ac)DKGLQTSQDAR (SEQ ID NO: 25) (CALR [62], log 2 scale, drug vs DMSO): −0.97 | light to heavy ratio (L/H ratio) of acetylated peptide AGLQVYNK(ac)CWK (SEQ ID NO: 260) (CD59 glycoprotein [63], CD59, drug:DMSO): −0.45 log 2 | L/H ratio of acetylated peptide ALEHFTDLYDIK(ac)R (SEQ ID NO: 26) (CLTC [637], log 2 scale, drug vs DMSO): −0.62 | L/H ratio of acetylated peptide FK(ac)ESFAEMNR (SEQ ID NO: 1) (COX4I1 [87], log 2 scale, drug vs DMSO): 0.52 | L/H ratio of acetylated peptide […](ac)QLCTIPR (SEQ ID NO: 27) (CREBBP [1216], log 2 scale, drug vs DMSO): 0.60 | L/H ratio of acetylated peptide TNK(ac)NK(ac)SSISR (SEQ ID NO: 13) (CREBBP [1595:1597], log 2 scale, drug vs DMSO): 0.64 | L/H ratio of acetylated peptide ALK(ac)DLYCHK (SEQ ID NO: 28) (CREM [240], log 2 scale, drug vs DMSO): 0.43 | L/H ratio of acetylated peptide LYCPK(ac)CMDVYTPK (SEQ ID NO: 29) (CSNK2B [139], log 2 scale, drug vs DMSO): −0.39 | light to heavy ratio (L/H ratio) of acetylated peptide FVLSSGK(ac)FYGDEEKDK (SEQ ID NO: 281) (Calreticulin [55], CALR, drug:DMSO): −0.51 log 2 | light to heavy ratio (L/H ratio) of acetylated peptide VHVIFNYK(ac)GK (SEQ ID NO: 273) (Calreticulin [151], CALR, drug:DMSO): −0.58 log 2 | light to heavy ratio (L/H ratio) of acetylated peptide NVLINK(ac)DIR (SEQ ID NO: 257) (Calreticulin [159], CALR, drug:DMSO): −0.88 log 2 | light to heavy ratio (L/H ratio) of acetylated peptide TCDLVGEK(ac)GK (SEQ ID NO: 289) (Cation-dependent mannose-6-phosphate receptor [38], M6PR, drug:DMSO): −0.81 log 2 | light to heavy ratio (L/H ratio) of acetylated peptide EFALK(ac)HLPNDPMFK (SEQ ID NO: 583) (Citrate synthase mitochondrial [366], gene CS, inhibitor:DMSO): 0.00 log 2 | light to heavy ratio (L/H ratio), log 2 scale, acetylated peptide MIYASSK(ac)DAIKK (SEQ ID NO: 763) (Cofilin-1 [121], gene CFL1, drug:DMSO): 0.00 | light to heavy ratio (L/H ratio) of acetylated peptide AAEEVEAK(ac)FK (SEQ ID NO: 328) (Coiled-coil-helix-coiled-coil-helix domain-containing protein 3 mitochondrial [173], CHCHD3, drug:DMSO): 0.00 log 2 | light to heavy ratio (L/H ratio) of acetylated peptide ASEIGEK(ac)YR (SEQ ID NO: 586) (Conserved hypothetical protein [484], gene KIAA0947, inhibitor:DMSO): 0.00 log 2 | light to heavy ratio (L/H ratio) of acetylated peptide DHCVAHK(ac)LFNNLK (SEQ ID NO: 608) (Cytochrome b-c1 complex subunit 6 mitochondrial [85], gene UQCRH, inhibitor:DMSO): 0.00 log 2
